Data set [1] in a line: Reaction with powdered green tea. The format is physicochemical. The following applies: 2 mg powdered green tea + 1 mg crystals + 100 μL water. As for the experimental part: 2 mg of powdered green tea and 1 mg of the crystals obtained in each of Examples 1 and 6 and Comparative Example 2 were mixed. As a model in which the mixed powder was wet, 100 μL of water was added. […] The crystals 2 were very stable and excellent in powder mixing.

Another data set can be described thus: Bulk density measurement. In kind it is physicochemical. The following applies: 10 mL volumetric flask. On the procedure:
Bulk density was measured using a 10 mL volumetric flask.

A short description of data set [2]: Test of penetration into skin. The note with it: 5 mg crystals on pig skin, 80 minutes at 37° C.; [(untreated − treated)/untreated brightness]×100.
Experimental: The skin of a pig was washed with tap water, and the water was completely wiped off. 5 mg of one of crystals was brought into contact with this skin of the pig and then fixed to the skin by wrapping in plastic wrap. After 80 minutes at 37° C., the tape was peeled, and the skin was washed with tap water to remove the test composition adhering to the skin surface. Evaluation was performed by capturing an image of the test composition by a scanner and measuring a change in the brightness of the skin using image software (product name: Paint (software included with Windows (registered trademark) XP, manufactured by Microsoft Corporation). At this time, the change in the brightness of the skin was calculated by [[brightness of untreated skin−brightness after treatment]/[brightness of untreated skin]]×100.
The nature of another data set: Suspension fluidity test. The format is physicochemical. The following applies: 100 g/L in water, mixed at room temperature, observed at 4° C.
A short description of data set [3]: Thermal stability test (70° C. color change test). The following applies: 1 mg crystals in 70° C. oven. The format is physicochemical. On the procedure:
1 mg of the crystals obtained in each of Examples 1 and 6 and Comparative Example 2 were placed in a 70° C. oven, and a change in color after 2 hours was observed.

The nature of data set [4]: Thermal stability test (solubility change at 180° C. for 10 minutes). The format is physicochemical. The following applies: for State of dissolution after heating at 180° C. for 10 minutes (with 100 before heating): solubility from absorbance at 330 nm, solubility before heating = 100; for State of dissolution after heating at 180° C. for 10 minutes: 1 mg heated on hot plate, then 10 mL water, stirred 15 minutes. As for the experimental part:
Whether the solubility of crystals changed by heat treatment was tested. […] At this time, the state was recorded. The aqueous solution after the stirring was filtered through a 0.5 μm filter and diluted to 1/10, and absorbance at 330 nm was measured. A change in the solubility of the crystals before and after the heat treatment was examined by this measurement.

Data set [5] is described as follows: Solubility and color of mixtures. The format is physicochemical. As for the experimental part: Powders were mixed in a proportion shown in Table 3, and the color of the powder was recorded. 1 mL of water was added to a crystal mass of 10 mg at room temperature. […] The aqueous solution after the cooling was centrifuged, and the supernatant liquid was removed. This was diluted with a phosphate buffer, and the solubility was calculated from absorbance at 330 nm.

Broadly, the solubility is the dissolved amount per volume that the medium holds. Usually Solubility stands for the dissolved amount per volume that the medium holds.

Regarding `O=C(O)c1cc(C(=O)[O-])c2c(n1)C(=O)C(=O)c1cc(C(=O)O)[nH]c1-2.[Na+]` [Comparative Example 2, reference compound], the “Color change of tea leaves” value in data set [1] was “changed color to orange”. In the data set “Bulk density measurement”, this molecule had a Bulk specific gravity of 0.20 g/mL. For the same molecule, the “Penetration (change in the brightness of the skin)” value in data set [2] amounted to 1.6. In “Suspension fluidity test”, the “Fluidity when crystals are added to water” value (“Fluidity” for short) was “No”. Moreover, the “Change in color after 2 hours at 70° C.” value in data set [3] is “Change to black”. In addition, the “State of dissolution after heating at 180° C. for 10 minutes (with 100 before heating)” value (shortened to “State of dissolution … (with 100 before heating)”) in data set [4] was 71.

With `O=C(O)c1cc(C(=O)O)c2c(n1)C(=O)C(=O)c1cc(C(=O)O)[nH]c1-2.[Na]` [Example 1, Pyrroloquinoline Quinone Monosodium], the “Color change of tea leaves” value in data set [1] is on record as “changed color to orange”. The same molecule displayed a Bulk specific gravity in “Bulk density measurement” of 0.29 g/mL. Further, the “Color in form of powder” value in data set [5] is listed as “Deep red”. Also, the solubility at 30 min in data set [5] (thermodynamic from solid, 10 mg in 1 mL water, ultrasonic 5 min, 70 degrees 10 min, cooled 30 min at room temperature, absorbance at 330 nm) stood at 4.5 mM. Also, in data set [2], the “Penetration (change in the brightness of the skin)” value was found to be 8.4. Besides, the “Fluidity” value in the data set “Suspension fluidity test” was “Yes”. Also, the “Change in color after 2 hours at 70° C.” value in data set [3] is reported as “No change”. In data set [4], the “State of dissolution after heating at 180° C. for 10 minutes” value was “All dissolve” and the “State of dissolution … (with 100 before heating)” value is recorded as 82.

For the molecule `O=C(O)c1cc(C(=O)O)c2c(n1)C(=O)C(=O)c1cc(C(=O)O)[nH]c1-2.[Na].[Na]` [Raw material, pyrroloquinoline quinone disodium, reference compound], in data set [5], the “Color in form of powder” value was “Red”.

On to “Dipyrroloquinoline quinone monosodium [Example 7]”, for which the “Color change of tea leaves” value in data set [1] was “did not change color”. For the same molecule, the Bulk specific gravity in the data set “Bulk density measurement” was determined as 0.27 g/mL. Further, the Solubility in data set [5] (10 mg in 1 mL water, ultrasonic 5 min, 70 degrees 10 min, cooled 30 min at room temperature, absorbance at 330 nm) is 2.1 mM. For the same molecule, in data set [5], the “Color in form of powder” value was “Black”. For the same molecule, the “Penetration (change in the brightness of the skin)” value in data set [2] stood at 4.3. Also, in “Suspension fluidity test”, the “Fluidity” value was “Yes”. For the same molecule, the “Change in color after 2 hours at 70° C.” value in data set [3] is “No change”. Besides, in data set [4], the “State of dissolution after heating at 180° C. for 10 minutes” value is recorded as “All dissolve” and the “State of dissolution … (with 100 before heating)” value came to 100.

(Values after patent US11021476B2, “Pyrroloquinoline quinone monosodium and method for producing the same, and composition comprising the same” (Mitsubishi Gas Chemical Company, Inc., priority 2016, dated 2021).)
